Measured values as given in US20080181876A1, “Methods for treating acute and subchronic pain” (priority 2007, published 2008).
Entries after “also recorded” stand apart in the source; their conditions may differ.

Tests used:
Sprague-Dawley rats = test: Modified Hargreaves test (high and low intensity), tail and hindpaw withdrawal to heat stimuli; type: in vivo, rat
Experimental: Pathogen-free adult male Sprague-Dawley rats (300-375 g; Harlan Labs, Madison, Wis.) were used in all experiments. Rats were housed in temperature (23±3° C.) and light (12 h: 12 h light:dark cycle; lights on at 0700) controlled rooms with standard rodent chow and water available ad libitum. All procedures were approved by the Institutional Animal Care and Use Committee of the University of Colorado at Boulder. Each study represents an n=6 per group.
Morphine sulfate and oxycodone hydrochloride were purchased from Sigma (St. Louis, Mo., USA). Morphine and oxycodone were administered subcutaneously at 4 mg/kg in a dose volume of 1 ml/kg in sterile injection normal saline. Ibudilast was supplied by Avigen (Alameda, Calif., USA). Ibudilast was administered intraperitoneally at 7.5 mg/kg in a dose volume of 2.5 ml/kg in 35% PEG: 65% injection saline. Morphine and oxycodone doses reported are as free base concentrations.
Hargreaves tests for analgesia and hyperalgesia. Rats received at least three 60 min habituations to the test environment prior to behavioral testing. Thresholds for behavioral response to heat stimuli applied to the plantar surface of each hindpaw and tail were assessed using a modified Hargreaves test (Hargreaves et al., 1988). All testing was conducted blind with respect to group assignment. Briefly, baseline withdrawal values were calculated from an average of 2 consecutive withdrawal latencies of the tail and the left and the right hindpaws, measured at 15-min intervals. Latencies for the high intensity stimulus at baseline ranged from 2 to 3 s, and a cut-off time of 10 s was imposed to avoid tissue damage. Latencies for the low intensity stimulus at baseline ranged from 6 to 7 s, and a cut-off time of 20 s was imposed to avoid tissue damage. The order of paw and tail testing varied randomly.
The analgesic responses were calculated as the % of maximal possible effect
(Carmody, 1995). For high intensity Hargreaves, a cut off of 10 s was used. For low intensity Hargreaves, a 20 s cut off was employed. Since there is no unilateral paw effect expected (or observed) left and right withdrawal latencies were averaged. Statistical significance for analysis of time courses was assessed using a two-way repeated ANOVA with Bonferroni post hoc test and compared the analgesic responses of active treatments versus their vehicle controls. Area under the curves were analyzed with a students t-test. Significance was set at P<0.05. Calculations were conducted with Excel 2003 SP2 (Microsoft, Redmond, Calif., USA) & Prism 4.03 (GraphPad, San Diego, Calif., USA).
Following baseline withdrawal latency assessments (−45 min), animals received ibudilast or vehicle and were tested again 10 min later to determine if ibudilast or vehicle had any effect on withdrawal latencies. At this time (time 0), the animals received a subcutaneous saline injection (1 ml/kg) to control for conditions in Experiment 2 (see below). Animals were then tested every 10 minutes for 80 min alternating high and low intensity Hargreaves tests.
Following baseline withdrawal latency assessments (−45 min), animals received ibudilast or vehicle (−30 min) and were tested again at −10 min. At time 0, animals received a subcutaneous morphine injection (4 mg/kg in a dose volume of 1 ml/kg in injection saline) and were tested every 10 minutes for 230 min alternating high and low intensity Hargreaves tests. […]

Sprague-Dawley (CD) rats = test: Rat tail-flick latency test (heat source, 15 second maximum); type: in vivo; details: for antinociceptive activity (tail-flick latency), administered alone: single agent: morphine 1.2 mg/kg s.c. or ibudilast 50 mg/kg po
Experimental: Male Sprague-Dawley (CD) rats were acclimated to a room temperature of 79° F. to semi-confined conditions on a heated glass surface (79° F.). On the first day, rats were acclimated to a glass surface for 20-30 minutes. Rats were in chambers made of plexiglass and could move freely in either direction. No stimulus was given on day 1. On day 2, rats were acclimated for 5 minutes, and a high intensity beam of light was directed at each rat tail approximately 4 cm from the tip. The time it took for a rat tail to withdraw from the heat source was recorded as the baseline latent period for tail flick. Three trials were done with 5 minutes between trials for each rat. The light source was moved for the 2nd and 3rd trials one cm caudal and rostral of the original trial to avoid tissue damage. Animals were dosed orally with ibudilast (50 mg/kg in vehicle (10% HCO60+10% PEG in sterile water) and/or 1.2 mg/kg morphine s.c. formulated in saline for injection. Dose volumes were 1 ml/kg for s.c. administrations (i.e. opioid) and 10 ml/kg for p.o. administrations. Animals were dosed and returned to their cages until 5 minutes before each hourly time point, when they were returned to the glass surface and stimulated with the heat source (3 trials/time point). The ibudilast vehicle was also shown not to have analgesic activity and performed like the saline control. Studies were performed at Avigen Inc. under IACUC regulations.

| Compound | enhancement of morphine analgesia, tail and paw withdrawal latencies (Sprague-Dawley rats; ibudilast 7.5 mg/kg i.p. 30 min prior to morphine 4 mg/kg s.c., high and low intensity Hargreaves, vs vehicle + morphine) | enhancement of oxycodone analgesia, tail and paw withdrawal latencies (Sprague-Dawley rats; ibudilast 7.5 mg/kg i.p. 30 min prior to oxycodone 4 mg/kg s.c., high and low intensity Hargreaves, vs vehicle + oxycodone) | area under the analgesia curve, co-administration with morphine (Sprague-Dawley rats; ibudilast 7.5 mg/kg i.p. + morphine 4 mg/kg s.c., tail and hind paw, vs vehicle + morphine) | area under the analgesia curve, co-administration with oxycodone (Sprague-Dawley rats; ibudilast 7.5 mg/kg i.p. + oxycodone 4 mg/kg s.c., tail and hind paw, vs vehicle + oxycodone) | tail and paw withdrawal latencies (% maximal possible effect), ibudilast alone (Sprague-Dawley rats; ibudilast 7.5 mg/kg i.p. alone (followed by s.c. saline), high and low intensity Hargreaves, vs vehicle 35% PEG) | tail-flick latency, co-administration of oral ibudilast and s.c. morphine (Sprague-Dawley (CD) rats; ibudilast 50 mg/kg po + morphine 1.2 mg/kg s.c. concurrently, vs either therapeutic alone) | antinociceptive activity (tail-flick latency), administered alone (Sprague-Dawley (CD) rats) |
| --- | --- | --- | --- | --- | --- | --- | --- |
| CC(C)C(=O)c1c(C(C)C)nn2ccccc12 [ibudilast, 3-isobutyryl-2-isopropylpyrazolo[1,5-a]pyridine] | significantly enhanced; also recorded: potentiated analgesia | significantly enhanced; also recorded: potentiated analgesia | significant increase in analgesia | significant increase in analgesia | no significant influence; also recorded: little to no effect | substantial, greater-than-additive increase; also recorded: potentiates morphine-induced analgesia | weak antinociceptive activity |
| CN1CC[C@]23c4c5ccc(O)c4O[C@H]2[C@@H](O)C=C[C@H]3[C@H]1C5 [morphine] | – | – | – | – | – | – | weak antinociceptive activity |
